These results are taken from US8394776B2, “Use of ursolic acid saponin,oleanolic acid saponin in preparation of increasing leucocytes and/or platelet medicine” (Chengdu Di'Ao Jiuhong Pharmaceutical Factor, priority 2007, dated 2013).

The test system of assay [1] is bone marrow mononuclear cell (BMMNC). The assay is described as follows: Monocytic proliferation in bone marrow of mice cultured in vitro (SRB method). Conditions: 1 μg/ml; cultured 5 days; versus blank control. Format: cell-based, KunMing mice. The source says:
15-20 KunMing mice (purchased from Laboratory Animal Center of Zhengzhou University, Henan) of either sex were killed by cervical vertebral dislocation. Bilateral thighbones were isolated and caput femoris was cut off. The marrow was washed repeatedly with serum-free RPMI1640 (Gibco Corp.), the wash solution containing marrow cells was collected, sucked and blew repeatedly with a pipette to make the cells disperse. After standing for a moment, the supernatant was sucked up and centrifugated at 100 g for 3 min to collect the cell pellet. The cells were resuspended in a culture media and brought to a volume of 5 ml. The cell suspension was added to the upper layer of a centrifugal tube containing 5 ml of a lymphocyte separation medium of mice and centrifugated at 400 g for 30 min. The milk-white bone marrow mononuclear cell (BMMNC) layer in the middle of the interface was collected and washed with serum-free medium RPMI1640 for three times to obtain a BMMNC suspension, which was inoculated into a 96-well plate at forty thousand per well after counting. Positive drugs rhG-CSF (recombinant granulocyte colony-stimulating factor, manufactured by QI LU Pharmaceutical Co., LTD., Shandong) or test samples of different concentrations were added, and meanwhile a blank control group without drug was established. They were cultured in a 5% CO2 incubator at 37 for 5 days. Cell proliferation was measured by a conventional SRB (Sigma) method in which OD at 490 nm was measured after being dyed with SRB. The growth rates of cell proliferation after drug treatment were calculated (Growth rate of cell proliferation=experimental group-blank control group/blank control group*100%).
On the technique in general: The SRB assay estimates cell density from bound dye.

Assay [2] concerns leukocytes (WBC). As to the kind of experiment: Cyclophosphamide-induced leukopenia in mice: leukocytes (WBC). It is filed as in vivo, Kunming mice. Particulars: Experimental Example 3; 0.8 mg/kg. As for the experimental part: (§1) Further, in vivo experiments were carried out on the compounds involved in the present invention using animal models of cyclophosphamide-induced leukopenia in mice. Experimental methods are briefed as follows: Healthy Kunming mice, of which half were male and the other half were female, were divided into groups, each group incuding 18 mice, and those mice weighing 18-22 g were selected and divided into groups randomly according to their body weights. Each group was given a different drug, wherein the negative control group and model control group were given physiological saline of the same volume, and the positive control group was treated with granulocyte colony-stimulating factors 40 μg/kg through subcutaneous injection (injection volume: 0.1 ml/10 g). After administration for 3 days, except the negative control group, other treatment groups were treated with 100 mg/kg cyclophosphamide (CY) through lumbar injection once a day for three days to cause a decrease of leukocytes in mice. A drop of blood (20 μl) was taken from posterior orbital venous plexus to detect the hemogram to observe the situation of leukocytes and platelets on day 1, day 3 and/or day 5 after the final lumbar injection of cyclophosphamide (i.e day 1, day 3 and/or day 5 after modeling) (Note: Each treatment group was administrated incessantly). The mice were killed on day 5 after the final lumbar injection of cyclophosphamide (i.e day 5 after modeling), and the leukocytes (WBC) and platelets (PLT) of the hemogram index were counted.
This experiment mainly studies the effect of G-1, G-6 and G-8 of ursolic acid saponin in increasing leukocytes, and compares the therapeutic effects of aglycon of ursolic acid and oleanolic acid and of the compound G-22 which has been disclosed by a patent.
(§2) The purpose of this experiment is to study the effect of G-1, G-3, G-11 and G-12 of ursolic acid saponin and oleanolic acid saponin in increasing platelets, and to observe whether G-11 and G-12 of oleanolic acid saponin have an effect in increasing leukocytes.

Assay [3] relates to platelets (PLT). The assay is described as follows: Cyclophosphamide-induced leukopenia in mice: platelets (PLT). It is filed as in vivo, Kunming mice. Particulars: Experimental Example 3, 0.8 mg/kg; for difference in increasing platelets compared with G-22 (in words): day 5 after modeling. As for the experimental part:
as §1, §2

As to `CC1(C)CC[C@]2(C(=O)O[C@@H]3O[C@H](CO)[C@@H](O)[C@H](O)[C@H]3O)CC[C@]3(C)C(=CC[C@@H]4[C@@]5(C)CC[C@H](O)C(C)(C)[C@@H]5CC[C@]43C)[C@@H]2C1` [Sample G-17, oleanolic acid-28-O-(β-D-glucopyranosyl) ester], in assay [1], the “Growth Rate of Proliferation %, 1 μg/ml” value was determined as 20.6%. As to `CC1(C)CC[C@]2(C(=O)O)CC[C@]3(C)C(=CC[C@@H]4[C@@]5(C)CC[C@H](O[C@@H]6OC[C@@H](O)[C@H](O)[C@H]6O)C(C)(C)[C@@H]5CC[C@]43C)[C@@H]2C1` [Sample G-15, 3-O-(β-D-xylopyranosyl) oleanolic acid], the “Growth Rate of Proliferation %, 1 μg/ml” value in assay [1] is listed as 20.6%. Take `CC1(C)CC[C@]2(C(=O)O)CC[C@]3(C)C(=CC[C@@H]4[C@@]5(C)CC[C@H](O[C@@H]6OC[C@@H](O)[C@@H](O)[C@@H]6O)C(C)(C)[C@@H]5CC[C@]43C)[C@@H]2C1` [Sample G-16, 3-O-(α-L-arabopyranosyl) oleanolic acid]: the “Growth Rate of Proliferation %, 1 μg/ml” value in assay [1] is 21.6%. “ursolic acid-28-O-(α-L-arabopyranosyl) ester [Sample G-5]”: the “Growth Rate of Proliferation %, 1 μg/ml” value in assay [1] was found to be 20.1%.

Turning to `C[C@H]1[C@H](C)CC[C@]2(C(=O)O)CC[C@]3(C)C(=CC[C@@H]4[C@@]5(C)CC[C@H](O[C@@H]6O[C@@H](C)[C@H](O)[C@@H](O)[C@H]6O)C(C)(C)[C@@H]5CC[C@]43C)[C@H]12` [Sample G-9, 3-O-(α-L-rhamnopyranosyl) ursolic acid], the “Growth Rate of Proliferation %, 1 μg/ml” value in assay [1] was found to be 23.4%. The same measure, in the same setting: for `CC1CCC2(C(=O)OC3OC(CO)C(OC4OC(CO)C(O)C(O)C4O)C(O)C3O)CCC3(C)C(=CCC4C5(C)CCC(OC6OCC(O)C(O)C6O)C(C)(C)C5CCC43C)C2C1C` [Sample G-4, 3-O-(α-L-arabopyranosyl) ursolic acid-28-O-(β-cellobiosyl) ester] the value was 18.0%. As to `CC1(C)CC[C@]2(C(=O)O[C@@H]3O[C@H](CO)[C@@H](O)[C@H](O)[C@H]3O)CC[C@]3(C)C(=CC[C@@H]4[C@@]5(C)CC[C@H](O[C@@H]6O[C@H](CO)[C@@H](O)[C@H](O)[C@H]6O)C(C)(C)[C@@H]5CC[C@]43C)[C@@H]2C1` [Sample G-12, 3-O-(β-D-glucopyranosyl) oleanolic acid-28-O-(β-D-glucopyranosyl) ester], the “Growth Rate of Proliferation %, 1 μg/ml” value in assay [1] is given as 25.4%. Also, in assay [2], the “effect in increasing leukocytes (in words)” value was “obvious effect in increasing leukocytes at day 1 after modeling”; the “leukocytes, Day 1 after modeling” value was 1.01 ± 0.55; the “leukocytes, Day 5 after modeling” value is 5.48 ± 4.39. Besides, in assay [3], the “effect in increasing platelets (in words)” value is “effect in increasing platelets is obvious on day 1 and day 5”; the “platelets, Day 1 after modelng” value turned out to be 456.88 ± 77.20; the “platelets, Day 5 after modeling” value was 390.86 ± 203.71**★★; the “difference in increasing platelets compared with G-22 (in words)” value is listed as “significant difference on day 5 compared with G-22”.

For the molecule `CC1(C)CC[C@]2(C(=O)O)CC[C@]3(C)C(=CC[C@@H]4[C@@]5(C)CC[C@H](O[C@@H]6O[C@H](C(=O)O)[C@@H](O)[C@H](O)[C@H]6O)C(C)(C)[C@@H]5CC[C@]43C)[C@@H]2C1` [Sample G-19, 3-O-(β-D-glucuronopyranosyl) oleanolic acid], the “Growth Rate of Proliferation %, 1 μg/ml” value in assay [1] is reported as 20.9%.

For `CC1CCC2(C(=O)O)CCC3(C)C(=CCC4C5(C)CCC(OC6OC(CO)C(O)C(O)C6O)C(C)(C)C5CCC43C)C2C1C` [Sample G-10, 3-O-(β-D-galactopyranosyl) ursolic acid], in assay [1], the “Growth Rate of Proliferation %, 1 μg/ml” value was 24.2%. Still for that read-out and setting: the figure for `CC1CCC2(C(=O)O)CCC3(C)C(=CCC4C5(C)CCC(OC6OC(CO)C(O)C(O)C6O)C(C)(C)C5CCC43C)C2C1C` [Sample G-7, 3-O-(β-D-glucopyranosyl) ursolic acid] is 23.7%.

As to `CC1(C)CC[C@]2(C(=O)O[C@@H]3OC[C@H](O)[C@H](O)[C@H]3O)CC[C@]3(C)C(=CC[C@@H]4[C@@]5(C)CC[C@H](O[C@@H]6OC[C@H](O)[C@H](O)[C@H]6O)C(C)(C)[C@@H]5CC[C@]43C)[C@@H]2C1` [Sample G-11, 3-O-(α-L-arabopyranosyl) oleanolic acid-28-O-(α-L-arabopyranosyl) ester], in assay [1], the “Growth Rate of Proliferation %, 1 μg/ml” value is given as 26.8%. In assay [2], the “effect in increasing leukocytes (in words)” value was “obvious effect in increasing leukocytes at day 1 after modeling”; the “leukocytes, Day 1 after modeling” value was found to be 0.94 ± 0.77; the “leukocytes, Day 5 after modeling” value was found to be 7.55 ± 4.28. In addition, in assay [3], the “effect in increasing platelets (in words)” value was “effect in increasing platelets is obvious on day 1 and day 5”; the “platelets, Day 1 after modelng” value is reported as 465.00 ± 99.28; the “platelets, Day 5 after modeling” value was 385.73 ± 198.30**★; the “difference in increasing platelets compared with G-22 (in words)” value is recorded as “significant difference on day 5 compared with G-22”. Regarding `CC1CCC2(C(=O)OC3OC(C)C(O)C(O)C3O)CCC3(C)C(=CCC4C5(C)CCC(OC6OC(C)C(O)C(O)C6O)C(C)(C)C5CCC43C)C2C1C` [Sample G-2, 3-O-(α-L-rhamnopyranosyl) ursolic acid-28-O-(α-L-rhamnopyranosyl) ester], the “Growth Rate of Proliferation %, 1 μg/ml” value in assay [1] is listed as 19.9%. As to `CC1(C)CCC2(C(=O)OC3OC(COC4OC(CO)C(O)C(O)C4O)C(O)C(O)C3O)CCC3(C)C(=CCC4C5(C)CCC(O)C(C)(C)C5CCC43C)C2C1` (stereo not drawn) [Sample G-18, oleanolic acid-28-O-(β-gentiobiosyl) ester], in assay [1], the “Growth Rate of Proliferation %, 1 μg/ml” value is 19.0%.

In the case of `CC1(C)CCC2(C(=O)O)CCC3(C)C(=CCC4C5(C)CCC(OC6OC(CO)C(O)C(O)C6O)C(C)(C)C5CCC43C)C2C1` [Sample G-14, 3-O-(β-D-galactopyranosyl) oleanolic acid], the “Growth Rate of Proliferation %, 1 μg/ml” value in assay [1] was determined as 19.9%. With “3-O-(β-D-glucopyranosyl) oleanolic acid [Sample G-13]”, the “Growth Rate of Proliferation %, 1 μg/ml” value in assay [1] is listed as 21.6%.
